Test results: ChEMBL document CHEMBL5512651, “Synthesis and biological evaluation of 4-imidazolidinone-containing compounds as potent inhibitors of the MDM2/p53 interaction” (Eur J Med Chem, 2024)
pIC50, pKi: −log10 of the molar value. Activity calls are given as the source filed them. No cut-off for these calls is given here.

What was measured:
[1] = test system: HCT-116; assay: cells; details: Homo sapiens, HCT-116, 96 h
[2] = target: Tumour suppressor p53/oncoprotein Mdm2 (Homo sapiens, UniProt Q00987); assay: Inhibition of MDM2/p53 (unknown origin) interaction by fluorescence polarization assay; format: protein assay
Chain of Tumour suppressor p53/oncoprotein Mdm2 (P04637 whole entry): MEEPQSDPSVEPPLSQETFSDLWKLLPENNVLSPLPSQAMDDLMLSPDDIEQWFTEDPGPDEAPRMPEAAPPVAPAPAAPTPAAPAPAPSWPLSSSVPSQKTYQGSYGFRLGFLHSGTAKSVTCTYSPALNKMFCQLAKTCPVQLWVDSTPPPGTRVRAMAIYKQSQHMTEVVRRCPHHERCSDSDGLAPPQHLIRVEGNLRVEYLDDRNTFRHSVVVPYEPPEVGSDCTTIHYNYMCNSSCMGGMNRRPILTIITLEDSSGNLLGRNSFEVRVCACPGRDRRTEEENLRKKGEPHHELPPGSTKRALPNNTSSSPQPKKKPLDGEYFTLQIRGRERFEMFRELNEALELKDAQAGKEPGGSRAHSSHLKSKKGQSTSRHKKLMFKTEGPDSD
Chain of Tumour suppressor p53/oncoprotein Mdm2 (Q00987 whole entry): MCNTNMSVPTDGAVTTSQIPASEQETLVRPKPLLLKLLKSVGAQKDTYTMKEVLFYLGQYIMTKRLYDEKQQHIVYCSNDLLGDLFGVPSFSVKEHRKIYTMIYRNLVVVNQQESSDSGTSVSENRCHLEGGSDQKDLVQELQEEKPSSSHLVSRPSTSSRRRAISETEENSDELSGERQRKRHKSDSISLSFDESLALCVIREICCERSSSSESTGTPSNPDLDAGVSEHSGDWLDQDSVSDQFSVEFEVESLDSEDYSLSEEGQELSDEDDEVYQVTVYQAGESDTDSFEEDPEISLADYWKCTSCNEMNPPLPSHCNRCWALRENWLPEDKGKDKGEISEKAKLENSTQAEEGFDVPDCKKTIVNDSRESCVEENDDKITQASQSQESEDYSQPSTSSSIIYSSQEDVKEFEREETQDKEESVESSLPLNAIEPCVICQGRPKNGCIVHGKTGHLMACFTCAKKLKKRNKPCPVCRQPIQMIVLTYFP

[3] = target: Tumour suppressor protein p53/Mdm4 (Homo sapiens, UniProt O15151); assay: Inhibition of MDM4/p53 (unknown origin) interaction by fluorescence polarization assay; format: protein assay
Chain of Tumour suppressor protein p53/Mdm4 (P04637 whole entry): as the sequence (P04637 whole entry) above
Chain of Tumour suppressor protein p53/Mdm4 (O15151 whole entry): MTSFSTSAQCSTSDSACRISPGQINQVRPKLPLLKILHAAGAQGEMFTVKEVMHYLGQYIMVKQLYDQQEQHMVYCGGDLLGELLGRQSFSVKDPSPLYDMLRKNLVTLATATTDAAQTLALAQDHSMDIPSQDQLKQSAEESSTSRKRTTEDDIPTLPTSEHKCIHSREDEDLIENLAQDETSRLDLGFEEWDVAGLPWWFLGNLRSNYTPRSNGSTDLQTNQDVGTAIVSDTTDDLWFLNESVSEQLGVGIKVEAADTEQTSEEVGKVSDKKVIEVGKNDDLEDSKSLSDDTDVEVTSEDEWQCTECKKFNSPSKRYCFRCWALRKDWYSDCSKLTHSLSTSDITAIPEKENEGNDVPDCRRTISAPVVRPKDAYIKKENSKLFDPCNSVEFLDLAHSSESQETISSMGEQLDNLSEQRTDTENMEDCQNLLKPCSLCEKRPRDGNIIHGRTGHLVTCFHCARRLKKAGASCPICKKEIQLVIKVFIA

[4] = test system: MOLM-13; assay: cells; details: Homo sapiens, MOLM-13, 48 h
[5] = test system: HeLa; assay: cells; details: Homo sapiens, 96 h
[6] = test system: MOLM-13; assay: Induction of apoptosis in human MOLM-13 cells at 0.375 to 6 uM incubated for 24 hrs by Western blot analysis; format: functional, cell-based; details: dose 0.375-6 µM
[7] = test system: A549; assay: cells; details: Homo sapiens, A549, 96 h
[8] = test system: SW480; assay: cells; details: Homo sapiens, SW480, 96 h
[9] = Antiproliferative activity against HEK293 cells incubated for 4 days by CCK8 assay; format: toxicity, cell-based; details: human
[10] = test system: MOLM-13; assay: Induction of apoptosis in human MOLM-13 cells assessed as increase in PARP cleavage at 0.15 to 0.6 uM incubated for 24 hrs by Western blot analysis; format: functional, cell-based; details: dose 0.15-0.6 µM
[11] = Selectivity index, ratio of IC50 for HEK293 cells to IC50 for human HeLa cells; format: toxicity; details: HEK293 cells versus HeLa cells, read-out: Ratio IC50
[12] = target: Cellular tumor antigen p53 (Homo sapiens) (UniProt P04637); assay: Activation of p53 pathway in human MOLM-13 cells assessed as increase in MDM2 mRNA level incubated for 24 hrs by qPCR analysis; format: cell-based; details: filed as activator, dose 0.038-0.6 µM
Chain of Cellular tumor antigen p53 (Homo sapiens) (P04637 whole entry, looked up): as the sequence (P04637 whole entry) above

[13] = target: Cellular tumor antigen p53 (Homo sapiens) (UniProt P04637); assay: Activation of p53 pathway in human MOLM-13 cells assessed as increase in p21 level incubated for 24 hrs by Western blot analysis; format: cell-based; details: filed as activator, dose 0.038-0.6 µM
[14] = target: Cellular tumor antigen p53 (Homo sapiens) (UniProt P04637); assay: Activation of p53 pathway in human MOLM-13 cells assessed as increase in PUMA mRNA level incubated for 24 hrs by qPCR analysis; format: cell-based; details: filed as activator, dose 0.038-0.6 µM
[15] = Selectivity index, ratio of IC50 for HEK293 cells to IC50 for human A549 cells; format: toxicity; details: HEK293 cells versus A549 cells, read-out: Ratio IC50
[16] = target: Cellular tumor antigen p53 (Homo sapiens) (UniProt P04637); assay: Activation of p53 pathway in human MOLM-13 cells assessed as increase in p21 mRNA level incubated for 24 hrs by qPCR analysis; format: cell-based; details: filed as activator, dose 0.038-0.6 µM
[17] = test system: MOLM-13; assay: Induction of apoptosis in human MOLM-13 cells assessed as increase in caspase-3 level at 0.15 to 0.6 uM incubated for 24 hrs by Western blot analysis; format: functional, cell-based; details: dose 0.15-0.6 µM
[18] = Selectivity index, ratio of IC50 for HEK293 cells to IC50 for human SW480 cells
[19] = target: Cellular tumor antigen p53 (Homo sapiens) (UniProt P04637); assay: Activation of p53 pathway in human MOLM-13 cells assessed as increase in p53 level incubated for 24 hrs by Western blot analysis; format: cell-based; details: filed as activator, dose 0.038-0.6 µM
[20] = target: Cellular tumor antigen p53 (Homo sapiens) (UniProt P04637); assay: Activation of p53 pathway in human MOLM-13 cells assessed as increase in BAX mRNA level incubated for 24 hrs by qPCR analysis; format: cell-based; details: filed as activator, dose 0.038-0.6 µM
[21] = target: Cellular tumor antigen p53 (Homo sapiens) (UniProt P04637); assay: Activation of p53 pathway in human MOLM-13 cells assessed as increase in MDM2 level incubated for 24 hrs by Western blot analysis; format: cell-based; details: filed as activator, dose 0.038-0.6 µM

SMILES	pIC50 [1]	pKi [2]	pKi [3]	pIC50 [4]	further results
COc1cc(C(=O)O)ccc1N1CN2[C@@H](CC(C)(C)C)[C@@]3(CNc4cc(Cl)ccc43)[C@@H](c3cccc(Cl)c3F)[C@@H]2C1=O	7.30	8.51	5.51	9.05	
COc1cc(C(=O)O)ccc1N1CN2[C@@H](CC(C)(C)C)[C@@]3(CNc4cc(Cl)ccc43)[C@@H](c3ccccc3Cl)[C@@H]2C1=O	5.04	7.48	< 4.57	5.26	
COc1cc(C(=O)O)ccc1N1CN2[C@@H](CC(C)(C)C(C)C)[C@@]3(CNc4cc(Cl)ccc43)[C@@H](c3cccc(Cl)c3)[C@@H]2C1=O	7.05	8.89	5.95	7.48	
CCN1[C@@H](CC(C)(C)C)[C@@]2(CNc3cc(Cl)ccc32)[C@@H](c2cccc(Cl)c2)[C@@H]1C(=O)Nc1ccc(C(=O)O)cc1OC	7.87			9.70	
COc1ccc(C2=N[C@@H](c3ccc(Cl)cc3)[C@@H](c3ccc(Cl)cc3)N2C(=O)N2CCNC(=O)C2)c(OC(C)C)c1 [NUTLIN-3]				6.70	pIC50 [5]: 4.50; Activity [6]: Active; pIC50 [7]: 5.69; pIC50 [8]: 4.79; IC50 at 4 days [9]: 26.7 µM
COc1cc(C(=O)O)ccc1N1CN2[C@@H](CC(C)(C)C)[C@@]3(CNc4cc(Cl)ccc43)[C@@H](c3ccc(Cl)cc3)[C@@H]2C1=O	5.59	7.55	< 4.57	5.66	
COc1cc(C(=O)O)ccc1N1CN2[C@@H](CC(C)(C)C)[C@@]3(CNc4cc(Cl)ccc43)[C@@H](c3cccc(F)c3)[C@@H]2C1=O	6.86	8.92	5.40	7.40	
COc1cc(C(=O)O)ccc1N1CN2[C@@H](CC(C)(C)C)[C@@]3(CNc4ccc(Cl)cc43)[C@@H](c3ccccc3Cl)[C@@H]2C1=O	4.89	5.96	< 4.57	5.14	
COc1cc(C(=O)O)ccc1N1CN2[C@@H](CC3(C)CCCCC3)[C@@]3(CNc4cc(Cl)ccc43)[C@@H](c3cccc(Cl)c3)[C@@H]2C1=O	6.87	8.57	< 4.57	7.45	
COc1cc(C(=O)O)ccc1N1CN2[C@@H](CC3(C)CCCC3)[C@@]3(CNc4cc(Cl)ccc43)[C@@H](c3cccc(Cl)c3)[C@@H]2C1=O	6.92	9.22	6.13	7.77	
COc1cc(C(=O)O)ccc1N1CN2[C@@H](CC(C)(C)C)[C@@]3(CNc4ccc(Cl)cc43)[C@@H](c3ccc(Cl)cc3)[C@@H]2C1=O	4.89	< 4.57	< 4.57	5.08	
COc1cc(C(=O)O)ccc1N1CN2[C@@H](CC(C)(C)C)[C@@]3(CNc4cc(Cl)ccc43)[C@@H](c3cccc(F)c3F)[C@@H]2C1=O	6.55	8.51	< 4.57	7.25	
CC(C)(C)C[C@@H]1N[C@@H](C(=O)N[C@H]2CC[C@H](O)CC2)[C@H](c2cccc(Cl)c2F)[C@]12C(=O)Nc1cc(Cl)ccc12 [SAR-405838]	6.64		4.43	6.94	
COc1cc(C(=O)O)ccc1N1CN2[C@@H](CC(C)(C)C)[C@@]3(CNc4cc(Cl)ccc43)[C@@H](c3cccc(Cl)c3Cl)[C@@H]2C1=O	5.59	8.12	5.30	5.86	
COc1cc(C(=O)O)ccc1N1CN2[C@@H](CC(C)(C)C)[C@@]3(CNc4cc(Cl)ccc43)[C@@H](c3ccccc3F)[C@@H]2C1=O	5.41	7.83	< 4.57	5.79	
COc1cc(C(=O)O)ccc1N1CN2[C@@H](CC(C)(C)C)[C@@]3(CNc4cc(Cl)ccc43)[C@@H](c3cccc(C(F)(F)F)c3)[C@@H]2C1=O	5.16	7.30	5.24	5.20	
COc1cccc([C@H]2[C@@H]3C(=O)N(c4ccc(C(=O)O)cc4OC)CN3[C@@H](CC(C)(C)C)[C@@]23CNc2cc(Cl)ccc23)c1	5.85	8.28	< 4.57	6.03	
COc1cc(C(=O)O)ccc1N1CN2[C@@H](CC(C)(C)C)[C@@]3(CNc4ccc(Cl)cc43)[C@@H](c3cccc(Cl)c3Cl)[C@@H]2C1=O	5.01	6.82	< 4.57	5.12	
COc1cc(C(=O)O)ccc1N1CN2[C@@H](CC3(C)CCC3)[C@@]3(CNc4cc(Cl)ccc43)[C@@H](c3cccc(Cl)c3)[C@@H]2C1=O	6.22	9.00	5.75	6.42	
COc1cc(C(=O)O)ccc1N1CN2[C@@H](CC(C)(C)C)[C@@]3(CNc4cc(Cl)cnc43)[C@@H](c3cccc(Cl)c3)[C@@H]2C1=O	6.21	8.92	5.44	6.69	
CCC(C)(CC)C[C@@H]1N2CN(c3ccc(C(=O)O)cc3OC)C(=O)[C@H]2[C@H](c2cccc(Cl)c2)[C@]12CNc1cc(Cl)ccc12	6.78	8.92	6.07	7.55	
COc1cc(C(=O)O)ccc1N1CN2[C@@H](CC(C)(C)C)[C@@]3(CNc4cc(Cl)ccc43)[C@@H](c3ccc(F)cc3)[C@@H]2C1=O	5.88	8.02	< 4.57	6.28	
COc1cc(C(=O)O)ccc1N1CN2[C@@H](CC(C)(C)C)[C@@]3(CNc4ccc(Cl)cc43)[C@@H](c3cccc(Cl)c3)[C@@H]2C1=O	5.06	7.17	< 4.57	5.59	
COc1cc(NC(=O)[C@@H]2N[C@@H](CC(C)(C)C)[C@](C#N)(c3ccc(Cl)cc3F)[C@H]2c2cccc(Cl)c2F)ccc1C(=O)O	6.98		5.77	7.61	pIC50 [5]: 4.88; pIC50 [7]: 6.43; pIC50 [8]: 5.26; IC50 at 4 days [9]: 9.08 µM
COc1cc(C(=O)O)ccc1N1CN2[C@@H](CC(C)(C)C)[C@@]3(CNc4cc(Cl)ccc43)[C@@H](c3cccc(C)c3)[C@@H]2C1=O	6.07	8.28	5.66	6.53	
COc1cc(C(=O)O)ccc1N1CN2[C@@H](CC3(C)CCOCC3)[C@@]3(CNc4cc(Cl)ccc43)[C@@H](c3cccc(Cl)c3)[C@@H]2C1=O	6.25	8.57	5.47	6.86	
CCC(C)(C)C[C@@H]1N2CN(c3ccc(C(=O)O)cc3OC)C(=O)[C@H]2[C@H](c2cccc(Cl)c2)[C@]12CNc1cc(Cl)ccc12	7.55	9.00	5.95	8.26	pIC50 [5]: 4.93; Activity [10]: Active; selectivity ratio [11]: 0.8; Activity [12]: Dose-Dependent Effect; Activity [13]: Dose-Dependent Effect; Activity [14]: Dose-Dependent Effect; pIC50 [7]: 6.99; selectivity ratio [15]: 93; Activity [16]: Dose-Dependent Effect; Activity [17]: Active; Ratio IC50 [18]: 1.9; Activity [19]: Dose-Dependent Effect; pIC50 [8]: 5.31; Activity [20]: Dose-Dependent Effect; IC50 at 4 days [9]: 9.53 µM; Activity [21]: Dose-Dependent Effect
